Results taken from patent US20050026850A1, “Combination of dehydroepiandrosterone or dehydroepiandrosterone-sulfate with a tyrosine kinase inhibitor, delta opioid receptor antagonist, neurokinin receptor antagonist, or VCAM inhibitor for treatment of asthma or chronic obstructive pulmonary disease” (priority 2003, published 2005).
“And” between values parts separate entries of the source, which are not always exact repeats. Equal values may be shown once.

Assays:
Intracellular adenosine = experiment: In vivo effect on adenosine levels in various rat tissues
[1] = Solid-state stability with and without lactose at 50° C. (DHEA formation by HPLC); type: physicochemical; conditions: for DHEA % formed from Anhydrous DHEA-S / Percent DHEA formed from DHEA-S Dihydrate: Control, neat, sealed, 25° C.
From the text: These conditions were used to stress the formulation in order to predict its long-term stability results. […] The primary degradant is DHEA. […] The materials on accelerated storage become more cohesive with time as evidenced by clumping during sample weighing for chemical analysis. […] This is a considerable disadvantage since lactose is the most commonly used inhalation excipient for dry powder formulations. Continuing with the virtually anhydrous form would mean limiting formulations to neat powder or undertaking more comprehensive safety studies to use a novel excipient.

HT-29 SF cells [2] = experiment: DHEA effect on cell cycle (flow cytometry); type: cell-based, human
Method: Cells were plated at 10^5/60-mm dish in duplicate. […] Cultures were trypsinized following 0, 24, 48, or 74 hours and fixed and stained using a modification of a procedure of Bauer et al., Cancer Res. 46, 3173-3178 (1986). Briefly, cells were collected by centrifugation and resuspended in cold phosphate-buffered saline. Cells were fixed in 70% ethanol, washed, and resuspended in phosphate-buffered saline.
After 24, 48, and 72 hours, cells were harvested, fixed in ethanol, and stained with propidium iodide, and the DNA content/cell was determined by flow cytometric analysis. The percentage of cells in G1, S, and G2M phases was calculated using the Cellfit cell cycle analysis program. S phase is marked by a quadrangle for clarity. Representative histograms from duplicate determinations are shown. The experiment was repeated three times.

HT-29 SF cells [3] = experiment: DHEA effect on cell growth; type: cell-based, human
[4] = Short-term solution stability of DHEA-S formulation; type: physicochemical; conditions: 7.5 mg/mL of DHEA-S in 0.12% NaCl, RT
Method: Aliquots of this solution are filled into clear glass vials and stored at RT (24-26° C.) and at 40° C. The samples are checked daily for DHEA-S content, DHEA content, and appearance. For each time point, duplicate samples are withdrawn and diluted from each vial. […] The study is stopped on day three. […] The solution should easily be stable for the day of reconstitution in a clinical trial. The following section describes the aerosol properties of this formulation.

Nebulizer studies = conditions: 0.12% NaCl (20 mM Cl−), Pari LC Plus nebulizer, 5 mL
From the text: The collection apparatus, nebulizer, and imp actor are rinsed with mobile phase and assayed by HPLC.

[5] = HPLC analysis of drug degradation during jet milling micronization; type: physicochemical; conditions: single-pass and double-pass jet milled, HPLC peak area versus unmilled standard
Method: Two vials (A; single-pass; 150 mg) and (B double-pass; 600 mg) of the micronized drug were available for determining drug degradation during jet milling micronization. […] The chromatographic peak area for the HPLC assay of the unmilled drug standard solution (10 mg/ml) gave a value of 23,427. […] The chromatographic peak areas for vials A and B were 11,979 and 11,677, respectively.

Solubility of DHEA-S = type: physicochemical; conditions: 15° C., 20 mM Na+, from Ksp by quadratic formula
From the text: Inhalation of pure water can produce a cough stimulus. […] The temperature effect is weaker at high NaCl concentrations.

[6] = tested on: rat peritoneal mast cells; experiment: Compound 48/80 histamine release from rat peritoneal mast cells; type: cell-based; conditions: for % Inhibition of Histamine Release: DHEA-S 0; for effect on compound 48/80 induced mast cell degranulation: antagonist alone, 1-100 nM
NK1 = conditions: printed under the compound name in the table, no method or source; cited from earlier work

Nc1nc(=O)c2c([nH]1)NCC(CNc1ccc(C(=O)N[C@@H](CCC(=O)O)C(=O)O)cc1)N2C=O (mixture of isomers) [Folinic Acid, Folinic acid]
Intracellular adenosine, Brain (Intracellular adenosine; Fischer 344 rats, once daily 14 days, DHEA 300 mg/kg, methyltestosterone 120 mg/kg, folinic acid 50 mg/kg i.p., mean ± SEM, control 0.5 ± 0.04): 0.72 ± 0.09 nmols/mg protein | effect of folinic acid administered alone on adenosine levels (Intracellular adenosine; rats, folinic acid 50 mg/kg i.p. 14 days): increase in adenosine levels for all organs studied | effect of coadministration of folinic acid on steroid-mediated adenosine depletion (Intracellular adenosine; rats, folinic acid 50 mg/kg i.p. with DHEA or methyltestosterone): completely abrogated steroid-mediated adenosine depletion

C[C@]12CC[C@H](OS(=O)(=O)[O-])CC1=CC[C@@H]1[C@@H]2CC[C@]2(C)C(=O)CC[C@@H]12.[Na+] [Anhydrous DHEA-S]
DHEA % formed from Anhydrous DHEA-S at 50° C. ([1]; 1 week): 9.817% | DHEA % formed from Anhydrous DHEA-S at 50° C. ([1]; 2 weeks): 14.954% | DHEA % formed from Anhydrous DHEA-S at 50° C. ([1]; 4 weeks): 20.171% | DHEA % formed from Anhydrous DHEA-S ([1]; 1 week): 2.694% | DHEA % formed from Anhydrous DHEA-S ([1]; 2 weeks): 2.370% | DHEA % formed from Anhydrous DHEA-S ([1]; 4 weeks): 2.666% | DHEA % formed from Anhydrous DHEA-S ([1]; Time (Weeks), initial value): 2.774%

C[C@]12CC[C@H](O)CC1=CC[C@@H]1[C@@H]2CC[C@]2(C)C(=O)CC[C@@H]12 [DHEA, 3β-hydroxyandrost-5-en-17-one]
cell cycle effect (summary) (HT-29 SF cells [2]; 25-200 μM, 24-72 hours): G1 block in HT-29 SF cells in a time-and dose-dependent manner | cell cycle distribution (HT-29 SF cells [2]; 25 or 50 μM, 72 hours): the percentage of cells in G1 phase was increased after 72 hours | exposure time after which cell number was reduced compared to controls (HT-29 SF cells [3]; 12.5 μM): 72 h | exposure time after which cell number was reduced compared to controls (HT-29 SF cells [3]; 25 μM): 48 h | exposure time after which cell number was reduced compared to controls (HT-29 SF cells [3]; 50 μM): 48 h | exposure time after which cell number was reduced compared to controls (HT-29 SF cells [3]; 200 μM): 24 h | effect on tissue adenosine (Intracellular adenosine; rat, in vivo): multi-organ depletion of adenosine

CC12CCC3C(CC=C4CC(OS(=O)(=O)[O-])CCC43C)C1CCC2=O.[Na+] (centres unmarked) [DHEA-S Dihydrate]
Percent DHEA formed from DHEA-S Dihydrate at 50° C. ([1]; 1 week): 0.216% | Percent DHEA formed from DHEA-S Dihydrate at 50° C. ([1]; 3 weeks): 0.317% | Percent DHEA formed from DHEA-S Dihydrate at 50° C. ([1]; 4 weeks): 0.374% | Percent DHEA formed from DHEA-S Dihydrate ([1]; 4 weeks): 0.218% | Percent DHEA formed from DHEA-S Dihydrate ([1]; Time (Weeks), initial value): 0.213%

C[C@]12CC[C@H](OS(=O)(=O)[O-])CC1=CC[C@@H]1[C@@H]2CC[C@]2(C)C(=O)CC[C@@H]12.[Na+] [DHEA-S, sodium dehydroepiandrostenone sulfate]
stability of nebulizer formulation [4]: stable for at least one day at RT | highest solution concentration that will not precipitate during nebulization (Nebulizer studies): approximately 7.5 mg/mL | drug degradation during jet milling micronization [5]: no detectable degradation of the drug during the jet milling micronization process | calculated DHEA-S solution concentration (Solubility of DHEA-S): 27.5 mM and 10.7 mg/mL

C[C@]12CCC(=O)C=C1CC[C@@H]1[C@@H]2CC[C@@]2(C)[C@H]1CC[C@]2(C)O [Methyltestosterone, methyltestosterone]
Intracellular adenosine, Brain (Intracellular adenosine; rat, in vivo): 0.42 ± 0.06 and 0.32 ± 0.03 | Intracellular adenosine, Heart (Intracellular adenosine; rat, in vivo): 8.3 ± 1.0 and 6.0 ± 0.4 | effect on tissue adenosine (Intracellular adenosine; rat, in vivo): multi-organ depletion of adenosine

C=CCN1CC[C@]23c4c5ccc(O)c4O[C@H]2C(=O)CC[C@@]3(O)[C@H]1C5 [Naloxone, naloxone]
% Inhibition of Histamine Release ([6]; antagonist 1 nM): −1% | % Inhibition of Histamine Release ([6]; antagonist 10 nM): −1% | % Inhibition of Histamine Release ([6]; antagonist 100 nM): −2% | effect on compound 48/80 induced mast cell degranulation [6]: minimal effect (if any)

CC(C)Oc1cccc(CC(=O)N2CCC[C@](CC[N+]34CCC(c5ccccc5)(CC3)CC4)(c3ccc(Cl)c(Cl)c3)C2)c1 [SR 140333]
% Inhibition of Histamine Release ([6]; antagonist 1 nM): 1% | % Inhibition of Histamine Release ([6]; antagonist 30 nM): −8% | % Inhibition of Histamine Release ([6]; antagonist 100 nM): −5% | effect on compound 48/80 induced mast cell degranulation [6]: minimal effect (if any) | IC50 (NK1): 0.05 µM
